Experiments:
EHEB CLL cell line = assay: Cell proliferation and viability assay (384-well flow cytometry, Annexin V/DRAQ7), EHEB; format: cell-based; conditions: 120 hours
Experimental: (§1) The following are examples of cell-based assays that can be used to determine the anti-proliferative activity and apoptotic effect of compounds described herein using exemplary CLL cell lines (Table 3). The in vitro growth inhibitory activity of Compound 1 described herein was evaluated using a 384-well flow cytometry assay.
(§2) The cell lines were plated under the conditions shown in Table 3 in 384-well flat bottom plates and incubated with increasing concentrations of compound ranging from 0.00015 to 10 μM or dimethyl sulfoxide (DMSO) control. The final concentration of DMSO was 0.1% (v/v). Following the addition of Compound 1 or DMSO and incubation for 120 hours, cell number and cell death were analyzed by flow cytometry (Attune®, Thermo Fisher) using Annexin V and the live-cell impermeant DNA dye, DRAQ7. […]
(§3) Flow cytometry data analysis was then performed using the Flow Jo_v10 software to determine the number of viable cells (Annexin V and DRAQ7 double negative staining cells) and percentage of apoptotic cells (Annexin V positive cells) for each condition. […] The IC50 (50% inhibitory concentration) and Emax (maximum efficacy achieved) values were then calculated by performing nonlinear regression curve fitting using log (inhibitor) vs. normalized response—variable slope analysis on GraphPad Prism 7.03. […]

WA-C3-CD5+ CLL cell line = assay: Cell proliferation and viability assay (384-well flow cytometry, Annexin V/DRAQ7), WA-C3-CD5+; format: cell-based; conditions: 120 hours
Experimental: as §1, §2, §3

WA-OSEL CLL cell line = assay: Cell proliferation and viability assay (384-well flow cytometry, Annexin V/DRAQ7), WA-OSEL; format: cell-based; conditions: 120 hours
Experimental: as §1, §2, §3

PGA1 CLL cell line = assay: Cell proliferation and viability assay (384-well flow cytometry, Annexin V/DRAQ7), PGA1; format: cell-based; conditions: 120 hours
Experimental: as §1, §2, §3

I83-E95 CLL cell line = assay: Cell proliferation and viability assay (384-well flow cytometry, Annexin V/DRAQ7), I83-E95; format: cell-based; conditions: 120 hours
Experimental: as §1, §2, §3

CII CLL cell line = assay: Cell proliferation and viability assay (384-well flow cytometry, Annexin V/DRAQ7), CII; format: cell-based; conditions: 120 hours
Experimental: as §1, §2, §3

Mec2 CLL cell line = assay: Cell proliferation and viability assay (384-well flow cytometry, Annexin V/DRAQ7), Mec2; format: cell-based; conditions: 120 hours
Experimental: as §1, §2, §3

Mec1 CLL cell line = assay: Cell proliferation and viability assay (384-well flow cytometry, Annexin V/DRAQ7), Mec1; format: cell-based; conditions: 120 hours
Experimental: as §1, §2, §3

[1] = tested on: primary CLL cells from patient-derived blood (CD5+CD19+ tumor cells); assay: Compound 1 in combination with obinutuzumab in B-cell CLL patient cells (ex vivo co-culture, flow cytometry, Caspase3); format: cell-based, human; conditions: single agent (Cpd1 DRC with DMSO, or obinutuzumab alone), 144 h, apoptosis (Caspase 3), DMSO baseline subtracted
Experimental: Obinutuzumab (GA101) is a humanized, glycoengineered type 2 antibody targeted against CD20. […] The effect of treatment with Compound 1 in combination with obinutuzumab on the proliferation and survival of CLL B cells was assessed utilizing an ex vivo model where primary CLL cells from patient-derived blood were stimulated to proliferate with 10% fetal bovine serum (FBS), 5 ng/mL recombinant human interleukine-4 (rh IL-4), 10 ng/mL recombinant human interleukine-10 (rh IL-10) and co-cultured with fibroblast expressing surface CD154 (CD40L) in a 96 well plate format.
Peripheral blood mononuclear cells (PBMCs) from CLL patients (Table 7) containing 52%-86% of CD5^+CD19^+ tumor cells were cultured at a density of 0.06-0.1×10^6 cells/well on a monolayer of CD154-expressing fibroblasts at a density of 0.09×10^6 cells/well in 96-well plates in RPMI 1640 medium supplemented with 10% FBS, 5 ng/mL rh IL-4 and 10 ng/mL rh IL-10. The cells were treated with vehicle control (0.1% DMSO) or increasing concentrations of Compound 1 ranging from 0.0001 to 1 μM and GA101 at concentrations ranging from 8 ng/mL to 5 ug/mL across all the different concentrations of Compound 1. After 144 h of treatment with both the agents, flow cytometric analysis was used to determine the number of tumor cells that were viable or apoptotic.
The tumor cell count was assessed by staining the patient PBMCs in each condition with tumor cell surface markers CD5 & CD19 along with Live/Dead fixable dye to exclude the dead cells and followed by intracellular staining for Caspase3 antibody to identify the apoptotic cells and was measured by flow cytometry (Attune NxT, Thermo Fisher). The live tumor cell count for each condition was calculated by normalizing to the precision count beads added to each sample.
The live tumor cell count was then normalized to the DMSO control (considered as 100% viable) to calculate the percentage of viable cells remaining after treatment. The normalized percentage of tumor cells was then represented as a heat map using Graph Pad Prism 8.0.0 to indicate the degree of tumor toxicity for each of the combinations (FIG. 1). Based on the data shown in FIG. 1, synergy/additivity calculations were performed using the HSA and Bliss Independence Model.
For apoptosis analysis, the percentage of apoptosis combining both “early” (Caspase 3 positive and Live-Dead fixable dye negative) and “late” apoptosis (Caspase 3 and Live-Dead fixable dye positive) cell gates subtracting the baseline DMSO value was graphed using GraphPad Prism 8.0.0.0. The Ymax (maximal percentage of apoptosis achieved) values from apoptosis curves were calculated by performing a nonlinear regression curve fitting using log(agonist) vs. normalized response—Variable slope analysis and identifying the maximum value on GraphPad Prism 8.0.0 (Table 8).

Compound: O=C1CC[C@H](N2C(=O)c3cccc(NCc4ccc(CN5CC(N6CCOCC6)C5)cc4F)c3C2=O)C(=O)N1 [Compound 1, (S)-2-(2,6-dioxopiperidin-3-yl)-4-((2-fluoro-4-((3-morpholinoazetidin-1-yl)methyl)benzyl)amino)isoindoline-1,3-dione]
- % Viable Cells Emax (percentage of tumor cells remaining) (EHEB CLL cell line): 28.68%
- % Viable Cells Emax (percentage of tumor cells remaining) (WA-C3-CD5+ CLL cell line): 44.2%
- % Viable Cells Emax (percentage of tumor cells remaining) (WA-OSEL CLL cell line): 54.42%
- % Viable Cells Emax (percentage of tumor cells remaining) (PGA1 CLL cell line): 69.21%
- % Viable Cells Emax (percentage of tumor cells remaining) (I83-E95 CLL cell line): 21.6%
- % Viable Cells Emax (percentage of tumor cells remaining) (CII CLL cell line): 78.23%
- % Viable Cells Emax (percentage of tumor cells remaining) (Mec2 CLL cell line): 25.55%
- % Viable Cells Emax (percentage of tumor cells remaining) (Mec1 CLL cell line): 83.45%
- Ymax of Pt 11 (%) ([1]; Pt 11): 18.81%
- Ymax of Pt 12 (%) ([1]; Pt 12): 19.11%
- Ymax of Pt 13 (%) ([1]; Pt 13): 29.40%
- Ymax of Pt 14 (%) ([1]; Pt 14): 24.11%
